# Assay results from ChEMBL document CHEMBL1201862, “PubChem BioAssay data set” (2004).
#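 Cultured in 96-well plates, cells were exposed to test compound for 48 hours across five concentrations. GI50 is the concentration that inhibits growth by half.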 Active and inactive are the calls of the source. No stated cut-off is given here; in the data, active = GI50 up to about 1.1 µM and inactive = higher.
# Key:
# Experiment in all cases: DTP human tumour cell line panel, 48 h
# 786-0 = system: 786-0
# A549 = system: A549
# ACHN = system: ACHN
# BT-549 = system: BT-549
# CCRF-CEM = system: CCRF-CEM
# COLO 205 = system: COLO 205
# DU-145 = system: DU-145
# EKVX = system: EKVX
# HCC 2998 = system: HCC 2998
# HCT-116 = system: HCT-116
# HCT-15 = system: HCT-15
# HL-60 = system: HL-60
# HOP-62 = system: HOP-62
# HT-29 = system: HT-29
# Hs-578T = system: Hs-578T
# IGROV-1 = system: IGROV-1
# K562 = system: K562
# KM12 = system: KM12
# MCF7 = system: MCF7
# MDA-MB-231 = system: MDA-MB-231
# MDA-MB-435 = system: MDA-MB-435
# MDA-N = system: MDA-N
# MOLT-4 = system: MOLT-4
# NCI-H226 = system: NCI-H226
# NCI-H23 = system: NCI-H23
# NCI-H460 = system: NCI-H460
# NCI-H522 = system: NCI-H522
# NCI/ADR-RES = system: NCI/ADR-RES
# OVCAR-3 = system: OVCAR-3
# OVCAR-4 = system: OVCAR-4
# OVCAR-8 = system: OVCAR-8
# PC-3 = system: PC-3
# RPMI-8226 = system: RPMI-8226
# RXF 393 = system: RXF 393
# SF-268 = system: SF-268
# SF-295 = system: SF-295
# SF-539 = system: SF-539
# SK-MEL-28 = system: SK-MEL-28
# SK-MEL-5 = system: SK-MEL-5
# SK-OV-3 = system: SK-OV-3
# SN12C = system: SN12C
# SNB-19 = system: SNB-19
# SNB-75 = system: SNB-75
# SR = system: SR
# SW-620 = system: SW-620
# T47D = system: T47D
# TK-10 = system: TK-10
# U-251 = system: U-251
# UACC-257 = system: UACC-257
# UACC-62 = system: UACC-62
# UO-31 = system: UO-31
# CAKI-1 = system: CAKI-1
# HOP-92 = system: HOP-92
# LOX IMVI = system: LOX IMVI
# M14 = system: M14
# Malme-3M = system: Malme-3M
# OVCAR-5 = system: OVCAR-5
# SK-MEL-2 = system: SK-MEL-2
smiles,measurement,setting,value
COc1ccc(C2CC(=O)Oc3ccccc3O2)cc1 (configuration not stated),GI50,786-0,> 100 µM (inactive)
same,GI50,A549,> 100 µM (inactive)
same,GI50,ACHN,> 100 µM (inactive)
same,GI50,BT-549,> 100 µM (inactive)
same,GI50,CCRF-CEM,52.8 µM (inactive)
same,GI50,COLO 205,> 100 µM (inactive)
same,GI50,DU-145,> 100 µM (inactive)
same,GI50,EKVX,> 100 µM (inactive)
same,GI50,HCC 2998,> 100 µM (inactive)
same,GI50,HCT-116,> 100 µM (inactive)
same,GI50,HCT-15,> 100 µM
same,GI50,HL-60,42.8 µM (inactive)
same,GI50,HOP-62,> 100 µM (inactive)
same,GI50,HT-29,> 100 µM (inactive)
same,GI50,Hs-578T,66.7 µM (inactive)
same,GI50,IGROV-1,> 100 µM (inactive)
same,GI50,K562,> 100 µM (inactive)
same,GI50,KM12,> 100 µM (inactive)
same,GI50,MCF7,> 100 µM (inactive)
same,GI50,MDA-MB-231,> 100 µM (inactive)
same,GI50,MDA-MB-435,70.5 µM (inactive)
same,GI50,MDA-N,98.2 µM (inactive)
same,GI50,MOLT-4,> 100 µM (inactive)
same,GI50,NCI-H226,> 100 µM (inactive)
same,GI50,NCI-H23,> 100 µM (inactive)
same,GI50,NCI-H460,> 100 µM (inactive)
same,GI50,NCI-H522,32.1 µM (inactive)
same,GI50,NCI/ADR-RES,> 100 µM (inactive)
same,GI50,OVCAR-3,> 100 µM (inactive)
same,GI50,OVCAR-4,> 100 µM (inactive)
same,GI50,OVCAR-8,> 100 µM (inactive)
same,GI50,PC-3,> 100 µM (inactive)
same,GI50,RPMI-8226,> 100 µM (inactive)
same,GI50,RXF 393,> 100 µM (inactive)
same,GI50,SF-268,> 100 µM (inactive)
same,GI50,SF-295,> 100 µM (inactive)
same,GI50,SF-539,> 100 µM (inactive)
same,GI50,SK-MEL-28,> 100 µM (inactive)
same,GI50,SK-MEL-5,> 100 µM (inactive)
same,GI50,SK-OV-3,> 100 µM (inactive)
same,GI50,SN12C,> 100 µM (inactive)
same,GI50,SNB-19,> 100 µM (inactive)
same,GI50,SNB-75,> 100 µM (inactive)
same,GI50,SR,52.7 µM (inactive)
same,GI50,SW-620,> 100 µM (inactive)
same,GI50,T47D,> 100 µM (inactive)
same,GI50,TK-10,> 100 µM (inactive)
same,GI50,U-251,> 100 µM (inactive)
same,GI50,UACC-257,> 100 µM (inactive)
same,GI50,UACC-62,> 100 µM (inactive)
same,GI50,UO-31,88.5 µM (inactive)
C[C@@H]1CC[C@H]2[C@H]1[C@H]1[C@@H](CC[C@]2(C)N=C=S)C1(C)C,GI50,BT-549,18.7 µM (inactive)
same,GI50,CAKI-1,37.8 µM (inactive)
same,GI50,CCRF-CEM,13.3 µM (inactive)
same,GI50,COLO 205,18.5 µM (inactive)
same,GI50,DU-145,23.4 µM (inactive)
same,GI50,HCC 2998,16.1 µM (inactive)
same,GI50,HCT-116,17.9 µM (inactive)
same,GI50,HCT-15,27.8 µM
same,GI50,HL-60,19.1 µM (inactive)
same,GI50,HOP-62,31.8 µM (inactive)
same,GI50,HOP-92,30.7 µM (inactive)
same,GI50,HT-29,19.9 µM (inactive)
same,GI50,Hs-578T,48.1 µM (inactive)
same,GI50,IGROV-1,45 µM (inactive)
same,GI50,K562,16.2 µM (inactive)
same,GI50,KM12,17 µM (inactive)
same,GI50,LOX IMVI,59.4 µM (inactive)
same,GI50,M14,18.5 µM (inactive)
same,GI50,MCF7,17.5 µM (inactive)
same,GI50,MDA-MB-231,30.1 µM (inactive)
same,GI50,MDA-MB-435,24.8 µM (inactive)
same,GI50,MDA-N,1.96 µM (inactive)
same,GI50,MOLT-4,13.8 µM (inactive)
same,GI50,Malme-3M,22.5 µM (inactive)
same,GI50,NCI-H226,17.7 µM (inactive)
same,GI50,NCI-H23,29.5 µM (inactive)
same,GI50,NCI-H460,20.4 µM (inactive)
same,GI50,NCI/ADR-RES,21.7 µM (inactive)
same,GI50,OVCAR-3,19.3 µM (inactive)
same,GI50,OVCAR-4,44.9 µM (inactive)
same,GI50,OVCAR-5,28.3 µM (inactive)
same,GI50,OVCAR-8,41.7 µM (inactive)
same,GI50,PC-3,26.7 µM (inactive)
same,GI50,RPMI-8226,17.2 µM (inactive)
same,GI50,RXF 393,15.5 µM (inactive)
same,GI50,SF-295,21.4 µM (inactive)
same,GI50,SK-MEL-28,21.1 µM (inactive)
same,GI50,SK-MEL-2,22.8 µM (inactive)
same,GI50,SK-MEL-5,17.5 µM (inactive)
same,GI50,SK-OV-3,49.3 µM (inactive)
same,GI50,SN12C,19.6 µM (inactive)
same,GI50,SNB-19,> 10 µM (inactive)
same,GI50,SNB-75,50.5 µM (inactive)
same,GI50,SR,22.1 µM (inactive)
same,GI50,SW-620,15.1 µM (inactive)
same,GI50,T47D,45.5 µM (inactive)
same,GI50,TK-10,41.3 µM (inactive)
same,GI50,U-251,16.7 µM (inactive)
same,GI50,UACC-257,25.8 µM (inactive)
same,GI50,UACC-62,21.8 µM (inactive)
same,GI50,UO-31,32.1 µM (inactive)
